Assay results published in PubChem BioAssay (NCI).
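Test compounds were applied to cells in 96-well plates for 48 hours at 5 doses. GI50 marks 50% less growth. At the TGI there is no net growth.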

Key:
Assay in all cases: NCI-60 cell line screen, 48 h
OVCAR-4 ovarian = tested on: OVCAR-4 ovarian
HCT-116 colon = tested on: HCT-116 colon
CCRF-CEM leukemia = tested on: CCRF-CEM leukemia
CAKI-1 renal = tested on: CAKI-1 renal
SF-539 CNS = tested on: SF-539 CNS
UACC-62 melanoma = tested on: UACC-62 melanoma
ACHN renal = tested on: ACHN renal
NCI-H522 lung = tested on: NCI-H522 lung
SNB-75 CNS = tested on: SNB-75 CNS
IGROV1 ovarian = tested on: IGROV1 ovarian

With COc1ccc2c(c1)nc(N)c1c3cc(OC)c(OC)cc3cn21 the GI50 (OVCAR-4 ovarian) was 0.238 µM, the TGI (OVCAR-4 ovarian) was 17.8 µM and the GI50 (HCT-116 colon) was < 0.01 µM. The TGI (HCT-116 colon) was 13.7 µM, the GI50 (CCRF-CEM leukemia) was 0.0101 µM and the TGI (CCRF-CEM leukemia) was 11 µM. For the same compound, the TGI (CAKI-1 renal) was 19.8 µM, the GI50 (SF-539 CNS) was 0.0697 µM and the TGI (SF-539 CNS) was 1.69 µM. For the same compound, the GI50 (UACC-62 melanoma) was < 0.01 µM, the TGI (UACC-62 melanoma) was 21.7 µM and the GI50 (ACHN renal) was < 0.01 µM. For the same compound, the TGI (ACHN renal) was 16.3 µM, the GI50 (NCI-H522 lung) was < 0.01 µM and the TGI (SNB-75 CNS) was 22.6 µM. The GI50 (IGROV1 ovarian) was 0.249 µM and the TGI (IGROV1 ovarian) was 20.1 µM.
For CCOC(=O)CCCn1c(SC)nc2cc(-c3ccco3)[nH]c2c1=O, the GI50 (OVCAR-4 ovarian) was > 100 µM, the TGI (OVCAR-4 ovarian) was > 100 µM and the GI50 (HCT-116 colon) was 49.8 µM. The TGI (HCT-116 colon) was > 100 µM, the GI50 (CCRF-CEM leukemia) was > 100 µM and the TGI (CCRF-CEM leukemia) was > 100 µM. It also gave a GI50 (CAKI-1 renal) of 25.8 µM, a TGI (CAKI-1 renal) of 90.4 µM and a GI50 (SF-539 CNS) of 20.4 µM. It also gave a TGI (SF-539 CNS) of 53.2 µM, a GI50 (UACC-62 melanoma) of 22.5 µM and a TGI (UACC-62 melanoma) of 68.3 µM. The GI50 (ACHN renal) was 31.7 µM, the TGI (ACHN renal) was > 100 µM and the GI50 (NCI-H522 lung) was 35.1 µM. The TGI (NCI-H522 lung) was > 100 µM, the GI50 (SNB-75 CNS) was 4.55 µM and the TGI (SNB-75 CNS) was 17.7 µM. For the same compound, the GI50 (IGROV1 ovarian) was 19.6 µM and the TGI (IGROV1 ovarian) was 76.6 µM.
NCCCC(=O)Nc1ccncc1 was tested, and the GI50 (OVCAR-4 ovarian) was > 100 µM, the TGI (OVCAR-4 ovarian) was > 100 µM and the GI50 (HCT-116 colon) was > 100 µM. The TGI (HCT-116 colon) was > 100 µM, the GI50 (CCRF-CEM leukemia) was > 100 µM and the TGI (CCRF-CEM leukemia) was > 100 µM. The GI50 (CAKI-1 renal) was > 100 µM, the TGI (CAKI-1 renal) was > 100 µM and the GI50 (SF-539 CNS) was > 100 µM. The TGI (SF-539 CNS) was > 100 µM, the GI50 (UACC-62 melanoma) was > 100 µM and the TGI (UACC-62 melanoma) was > 100 µM. For the same compound, the GI50 (ACHN renal) was > 100 µM, the TGI (ACHN renal) was > 100 µM and the GI50 (NCI-H522 lung) was > 100 µM. For the same compound, the TGI (NCI-H522 lung) was > 100 µM, the GI50 (SNB-75 CNS) was 60 µM and the TGI (SNB-75 CNS) was > 100 µM. For the same compound, the GI50 (IGROV1 ovarian) was > 100 µM and the TGI (IGROV1 ovarian) was > 100 µM.
Cn1ccc2c(NCCN)c3c(c(NCCN)c21)C(=O)c1ccccc1C3=O was tested, and the GI50 (OVCAR-4 ovarian) was 9.46 µM, the TGI (OVCAR-4 ovarian) was 30.8 µM and the GI50 (HCT-116 colon) was 0.398 µM. The TGI (HCT-116 colon) was 4.41 µM, the GI50 (CCRF-CEM leukemia) was 0.371 µM and the GI50 (CAKI-1 renal) was 2.51 µM. For the same compound, the TGI (CAKI-1 renal) was 9.48 µM, the GI50 (SF-539 CNS) was 0.291 µM and the TGI (SF-539 CNS) was 1.55 µM. The GI50 (UACC-62 melanoma) was 2.17 µM, the TGI (UACC-62 melanoma) was 5.86 µM and the GI50 (ACHN renal) was 2.5 µM. For the same compound, the TGI (ACHN renal) was 9.04 µM, the GI50 (NCI-H522 lung) was 0.498 µM and the TGI (NCI-H522 lung) was 4.92 µM. The GI50 (SNB-75 CNS) was 18.9 µM, the TGI (SNB-75 CNS) was 44.5 µM and the GI50 (IGROV1 ovarian) was 0.824 µM. The TGI (IGROV1 ovarian) was > 31.8 µM.
In the case of O=[N+]([O-])c1ccc(Sc2c3ccccc3nc3ccccc23)cc1, the TGI (OVCAR-4 ovarian) is reported as > 100 µM, the TGI (HCT-116 colon) is reported as > 100 µM and the TGI (CCRF-CEM leukemia) is reported as > 100 µM. For the same compound, the TGI (CAKI-1 renal) was > 100 µM, the TGI (SF-539 CNS) was > 100 µM and the TGI (UACC-62 melanoma) was > 100 µM. The TGI (ACHN renal) was > 100 µM, the TGI (NCI-H522 lung) was > 100 µM and the TGI (SNB-75 CNS) was > 100 µM. For the same compound, the TGI (IGROV1 ovarian) was > 100 µM.
In the case of C=C1C(=O)O[C@@H]2C1C[C@@H](O)/C(C)=C/C/C=C(\C)CCC[C@H](C)[C@H]2OC(C)=O (stereo partly specified), the GI50 (OVCAR-4 ovarian) is reported as 42.8 µM, the TGI (OVCAR-4 ovarian) is reported as > 100 µM and the GI50 (HCT-116 colon) is reported as 14.1 µM. For the same compound, the TGI (HCT-116 colon) was 27 µM, the GI50 (CCRF-CEM leukemia) was 21.2 µM and the TGI (CCRF-CEM leukemia) was 40.2 µM. For the same compound, the GI50 (CAKI-1 renal) was 32.8 µM, the TGI (CAKI-1 renal) was > 100 µM and the GI50 (SF-539 CNS) was 20.4 µM. The TGI (SF-539 CNS) was 39.9 µM, the GI50 (UACC-62 melanoma) was 22 µM and the TGI (UACC-62 melanoma) was 43.5 µM. The GI50 (ACHN renal) was 21.3 µM, the TGI (ACHN renal) was 42.6 µM and the GI50 (NCI-H522 lung) was 22.7 µM. The TGI (NCI-H522 lung) was 79.9 µM, the GI50 (SNB-75 CNS) was 38.6 µM and the TGI (SNB-75 CNS) was > 100 µM. For the same compound, the GI50 (IGROV1 ovarian) was 8.84 µM and the TGI (IGROV1 ovarian) was 32.7 µM.
With FC(F)(F)c1cccc(COCCN2CCN(Cc3cccc(C(F)(F)F)c3)CC2)c1 the TGI (OVCAR-4 ovarian) was 32.1 µM, the TGI (HCT-116 colon) was 34.9 µM and the TGI (CCRF-CEM leukemia) was 46.6 µM. It also gave a TGI (CAKI-1 renal) of 31.3 µM, a TGI (SF-539 CNS) of 39 µM and a TGI (UACC-62 melanoma) of 28.6 µM. For the same compound, the TGI (ACHN renal) was 29.1 µM, the TGI (NCI-H522 lung) was 26.5 µM and the TGI (SNB-75 CNS) was 26.3 µM. It also gave a TGI (IGROV1 ovarian) of 30.3 µM.
In the case of CC(C)=CC(=O)Oc1ccc([N+](=O)[O-])cc1, the TGI (OVCAR-4 ovarian) is reported as > 100 µM, the TGI (HCT-116 colon) is reported as > 100 µM and the TGI (CCRF-CEM leukemia) is reported as > 100 µM. For the same compound, the TGI (CAKI-1 renal) was 53.8 µM, the TGI (SF-539 CNS) was > 100 µM and the TGI (UACC-62 melanoma) was > 100 µM. For the same compound, the TGI (ACHN renal) was > 100 µM, the TGI (NCI-H522 lung) was 14.8 µM and the TGI (SNB-75 CNS) was > 100 µM. For the same compound, the TGI (IGROV1 ovarian) was > 100 µM.
